From the supplement of paper PMC10627819

Experiments:
[1] = system: S. aureus Newman; assay: fitness (endpoint OD595 vs no drug) (fraction); higher = more growth
Outline: (§1)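 Volumes were 30 µl per well, or 55 µl for S. pneumoniae, in 384-well plates inoculated at OD595 0.01. Media were TSB, LB Lennox or CY at 37 °C, and OD595 was read every 30 min for 14 h with first-reading background subtraction. Fitness is the ratio of optical density at stationary-phase entry to the robust mean of no-drug controls. That ratio is capped at 1.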

[2] = system: S. aureus DSM 20231; assay: as above
Outline: as §1

[3] = system: S. pneumoniae D39V; assay: as above
Outline: as §1

[4] = system: B. subtilis 168; assay: as above
Outline: as §1

[5] = system: S. aureus Newman; assay: Bliss interaction score (quartile over a dose matrix) (fitness difference); higher = more antagonism (negative = synergy)
Outline: (§2)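 Fitness here means normalised growth, inferred for single drugs from the combination data. Growth was OD595 at entry into stationary phase, divided by the plate's robust no-drug mean and capped at 1. The Bliss score is observed minus expected fitness, with the expectation being the product, and its quartiles span technical, biological and donor/recipient replicates.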

[6] = system: S. aureus DSM 20231; assay: as above
Outline: as §2

[7] = system: S. pneumoniae D39V; assay: as above
Outline: as §2

[8] = system: B. subtilis 168; assay: as above
Outline: as §2
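Wherever Bliss interaction score (quartile over a dose matrix) is given: first quartile when negative (synergy) and third quartile when positive (antagonism).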

Cc1onc(-c2ccccc2)c1C(=O)N[C@@H]1C(=O)N2[C@@H]1SC(C)(C)[C@@H]2C(=O)O [Oxacillin] + C[n+]1ccc(-c2cc[n+](C)cc2)cc1 [Paraquat]
Details	fitness
[1], first compound 0.0156 µg/mL, partner 1.25 µg/mL	0.792
[1], first compound 0.0156 µg/mL, partner 2.5 µg/mL	0.779
[1], first compound 0.0156 µg/mL, partner 5 µg/mL	0.795
[1], first compound 0.0312 µg/mL, partner 2.5 µg/mL	0.688
[1], first compound 0.0312 µg/mL, partner 5 µg/mL	0.687
[1], first compound 0.0625 µg/mL, partner 2.5 µg/mL	0.604
[1], first compound 0.0625 µg/mL, partner 5 µg/mL	0.587
[2], first compound 0.0156 µg/mL, partner 1.25 µg/mL	0.909
[2], first compound 0.0156 µg/mL, partner 2.5 µg/mL	0.892
[2], first compound 0.0156 µg/mL, partner 5 µg/mL	0.865
[2], first compound 0.0312 µg/mL, partner 1.25 µg/mL	0.704
[2], first compound 0.0312 µg/mL, partner 2.5 µg/mL	0.688
[2], first compound 0.0312 µg/mL, partner 5 µg/mL	0.63
[2], first compound 0.0625 µg/mL, partner 1.25 µg/mL	0.466
[2], first compound 0.0625 µg/mL, partner 2.5 µg/mL	0.599
[2], first compound 0.0625 µg/mL, partner 5 µg/mL	0.498
[3], first compound 0.01 µg/mL, partner 1.5 µg/mL	0.986
[3], first compound 0.01 µg/mL, partner 3 µg/mL	0.986
[3], first compound 0.01 µg/mL, partner 6 µg/mL	0.96
[3], first compound 0.02 µg/mL, partner 1.5 µg/mL	0.939
[3], first compound 0.02 µg/mL, partner 3 µg/mL	0.961
[3], first compound 0.02 µg/mL, partner 6 µg/mL	0.928
[3], first compound 0.04 µg/mL, partner 3 µg/mL	0.538
[3], first compound 0.04 µg/mL, partner 6 µg/mL	0.483
[4], first compound 0.002 µg/mL, partner 1.25 µg/mL	0.964
[4], first compound 0.002 µg/mL, partner 2.5 µg/mL	0.922
[4], first compound 0.002 µg/mL, partner 5 µg/mL	0.725
[4], first compound 0.004 µg/mL, partner 1.25 µg/mL	0.917
[4], first compound 0.004 µg/mL, partner 2.5 µg/mL	0.864
[4], first compound 0.004 µg/mL, partner 5 µg/mL	0.747
[4], first compound 0.008 µg/mL, partner 1.25 µg/mL	0.861
[4], first compound 0.008 µg/mL, partner 2.5 µg/mL	0.836
[4], first compound 0.008 µg/mL, partner 5 µg/mL	0.665

fitness, [4], one replicate
Details	first compound 0.075 µg/mL	first compound 0.15 µg/mL	first compound 0.3 µg/mL
partner 1.25 µg/mL	0.512	0.0497	0.0541
partner 2.5 µg/mL	0.326	0.054	0.0573
partner 5 µg/mL	0.0786	0.0366	0.0407

Details	Bliss interaction score
[5]	-0.0522
[6]	-0.0577
[7]	0.0963
[8]	-0.0872

C[n+]1ccc(-c2cc[n+](C)cc2)cc1 [Paraquat] + CC1=C\[C@@H](O)CC(=O)Cc2nc(co2)C(=O)N2CCC=C2C(=O)O[C@H](C(C)C)[C@H](C)/C=C/C(=O)NC\C=C\1 [Virginiamycin M1]
fitness, one replicate
Details	first compound 1.25 µg/mL	first compound 1.5 µg/mL	first compound 2.5 µg/mL	first compound 3 µg/mL	first compound 5 µg/mL	first compound 6 µg/mL
[1], partner 0.0625 µg/mL	0.883	–	0.93	–	0.863	–
[1], partner 0.125 µg/mL	0.885	–	0.934	–	0.894	–
[1], partner 0.25 µg/mL	0.868	–	0.9	–	0.929	–
[1], partner 0.5 µg/mL	0.862	–	0.852	–	0.908	–
[1], partner 1 µg/mL	0.949	–	0.959	–	0.971	–
[1], partner 2 µg/mL	0.862	–	0.848	–	0.855	–
[2], partner 0.5 µg/mL	0.831	–	0.901	–	0.858	–
[2], partner 1 µg/mL	0.781	–	0.848	–	0.898	–
[3], partner 0.15 µg/mL	–	≥ 1	–	≥ 1	–	0.975
[3], partner 0.3 µg/mL	–	≥ 1	–	≥ 1	–	0.948

fitness
Details	first compound 1.25 µg/mL	first compound 1.5 µg/mL	first compound 2.5 µg/mL	first compound 3 µg/mL	first compound 5 µg/mL	first compound 6 µg/mL
[2], partner 0.0625 µg/mL	0.912	–	0.897	–	0.872	–
[2], partner 0.125 µg/mL	0.967	–	0.981	–	0.936	–
[2], partner 0.25 µg/mL	0.935	–	0.882	–	0.934	–
[3], partner 0.5 µg/mL	–	0.987	–	0.988	–	0.991
[3], partner 1 µg/mL	–	0.991	–	0.978	–	0.967
[3], partner 2 µg/mL	–	0.937	–	0.93	–	0.897
[4], partner 0.0625 µg/mL	0.951	–	0.934	–	0.819	–
[4], partner 0.125 µg/mL	0.918	–	0.934	–	0.856	–
[4], partner 0.25 µg/mL	0.93	–	0.95	–	0.893	–

Details	Bliss interaction score
[5]	0.0334
[6]	0.0744
[7]	-0.0275
[8]	0.0473

C[n+]1ccc(-c2cc[n+](C)cc2)cc1 [Paraquat] + CCN(CC)CCOC(=O)c1ccc(N)cc1 [Procaine]
fitness
Details	first compound 1.25 µg/mL	first compound 1.5 µg/mL	first compound 2.5 µg/mL	first compound 3 µg/mL	first compound 5 µg/mL	first compound 6 µg/mL
[1], partner 85.5 µg/mL	0.959	–	0.917	–	0.948	–
[1], partner 171 µg/mL	0.956	–	0.909	–	0.951	–
[1], partner 342 µg/mL	0.944	–	0.947	–	0.937	–
[2], partner 85.5 µg/mL	0.906	–	0.944	–	0.95	–
[2], partner 171 µg/mL	0.936	–	0.981	–	0.996	–
[2], partner 342 µg/mL	0.966	–	0.97	–	0.98	–
[3], partner 85.5 µg/mL	–	≥ 1	–	≥ 1	–	≥ 1
[3], partner 171 µg/mL	–	≥ 1	–	0.998	–	≥ 1
[3], partner 342 µg/mL	–	0.988	–	0.971	–	0.951
[4], partner 85.5 µg/mL	0.954	–	0.877	–	0.813	–
[4], partner 171 µg/mL	0.943	–	0.935	–	0.837	–
[4], partner 342 µg/mL	0.89	–	0.89	–	0.812	–

Details	Bliss interaction score
[5]	0.0516
[6]	0.0567
[7]	0.0315
[8]	0.0621
